Peptide text beside a SMILES is read from it. * marks the point of attachment. Cbz = O=C(OCc1ccccc1)*
Tests used:
NCI-H460 cells = assay: In vitro proliferation under normoxia conditions (CTG, 72 hours), Example 29; format: cell-based
Method: (§1) • 1) NCI-H460 and NCI-H460 P53KO # 1 cell suspensions were added to 96-well plate (100 µL per well), with a cell density of 2000 cells/well. • 2) The cells were cultured overnight in a 37°C, 5% CO2 incubator. • 3) Compound Treatment
(§2) Monotherapy: 24 hours after cell plating, each well was supplemented with 99.5 µL of growth medium. Then, 0.5 µL of test compounds at different concentrations was added. The plate was gently shaken to ensure even mixing, and then placed in a 37°C, 5% CO2 incubator.
(§3) Combination therapy: 24 hours after cell plating, each well was supplemented with 99 µL of growth medium. Then, 0.5 µL of the combination compound was added. The plate was gently shaken to ensure even mixing, and then placed in an incubator for 2 hours. Then, 0.5µL of test compounds at different concentrations was added. The plate was gently shaken to ensure even mixing, and then placed in a 37°C, 5% CO2 incubator. • 4) The cell plate was placed in the incubator for 72 hours. • 5) The cell plate to be tested was placed at room temperature and equilibrated for 30 minutes, and 100 µL of medium was discarded from each well. • 6) 25 µL of CTG reagent was added to each well, placed at a fast shaker to shake for 2 minutes, and placed at room temperature for 30 minutes (protected from light). • 7) The chemiluminescence signal value was read using a multifunctional microplate reader with a reading time of 1000 ms. • 8) IC50 (half maximal inhibitory concentration) values were calculated using GraphPad Prism 5 software.

NCI-H460 P53KO #1 cells = assay: as above; format: cell-based, human; conditions: Table 25
Method: as §1, §2, §3

H460 cells = assay: In vitro proliferation inhibition experiment (CTG, 72 hours), Example 20; format: cell-based; conditions: Homo sapiens, NCI-H460, read-out: Inhibition rate result / %
Method: (§4) • 1) H460 and HPAF-II cell suspensions were added to a 96-well plate (100 µL per well), with cell densities of 2000 cells/well and 20000 cells/well, respectively. • 2) The cells were cultured overnight in a 37°C, 5% CO2 incubator. • 3) Compound Treatment
(§5) Combination therapy: 24 hours after cell plating, each well was supplemented with 99 µL of growth medium. Then, 0.5 µL of Nutlin-3 or RITA was added to each well. The plate was gently shaken to ensure even mixing, and then placed in an incubator for 2 hours. Then, 0.5 µL of test compounds at different concentrations was added. The plate was gently shaken to ensure even mixing, and then placed in a 37°C, 5% CO2 incubator.
(§6) Monotherapy: 24 hours after cell plating, each well was supplemented with 99.5 µL of growth medium. Then, 0.5 µL of test compounds at different concentrations was added. The plate was gently shaken to ensure even mixing, and then placed in a 37°C, 5% CO2 incubator. • 4) The cell plate was placed in the incubator for 72 hours. • 5) The cell plate to be tested was placed at room temperature and equilibrated for 30 minutes, and 100 µL of medium was discarded from each well. • 6) 25 µL of CTG reagent was added to each well, placed on a fast shaker to shake for 2 minutes, and placed at room temperature for 30 minutes (protected from light). • 7) The chemiluminescence signal value was read using a multifunctional microplate reader with a reading time of 1000 ms, and the corresponding inhibition rate data were calculated.

HPAF-II cells = assay: as above; format: cell-based, human; conditions: Homo sapiens, Table 15, HPAF-II, read-out: Inhibition rate/%
Method: as §4, §5, §6

[1] = system: RAD51 protein in H460 cells; assay: WB detection of RAD51 protein (level, degradation with MG-132, half-life with Cycloheximide); format: cell-based; conditions: 0.1 nM AST-3424, 5 µM Nutlin-3, then 5 µM MG-132 for 6 hours (Figure 21)
Method: In the first experiment, the second experiment and the third experiment about the effect of the combination of AST-3424 and Nutlin-3 on Ser15-p53, Ser20-p53, Total p53, MDM2, and p21 proteins in H460 cells in Example 21, the applicant also performed WB detection of RAD51 protein.
• 1) H460 cell suspension was added to a 24-well plate, with a cell density of 100000 cells/well and 995 µL of medium per well. • 2) The cells were cultured overnight in a 37°C, 5% CO2 incubator. • 3) Compound Treatment
Monotherapy: 24 hours after cell plating, 5 µL of test compounds at different concentrations was added: 1% DMSO, 0.1 nM AST-3424, and 5 µM Nutlin-3. The plate was gently shaken to ensure even mixing, and then placed in a 37°C, 5% CO2 incubator. After culturing for another 24 hours, the cells were collected.
Combination therapy: 24 hours after cell plating, • Adding 0.1 nM AST-3424 for pre-treatment for 2 hours, and then adding 5 µM Nutlin-3 for co-treatment for 22 hours; • Adding 1% DMSO and 5 µM MG-132 for co-treatment for 24 hours; • Adding 0.1 nM AST-3424 and 5 µM MG-132 for co-treatment for 24 hours; • Adding 5 µM Nutlin-3 and 5 µM MG-132 for co-treatment for 24 hours; • Adding 0.1 nM AST-3424 for pre-treatment for 2 hours, and then adding 5 µM Nutlin-3 for treatment for 16 hours, and then adding 5 µM MG-132 for co-treatment for 6 hours. […]

[2] = system: cell lines and mouse tumor models of BRCA pathogenic mutations; conditions: in vitro and in vivo pharmacodynamic experiments; data of WO2023174319A; cited from earlier work
[3] = system: NRF2 and AKR1C3 in HPAF II cells; conditions: 0.875, 1.75, 3.5, 7 µM SFN, overnight, with increasing concentration
Method: A solution of SFN compound (Sulforaphane, NRF2 activator) was added to HPAF II cell suspension. The mixture was cultured overnight in a 37°C, 5% CO2 incubator. The cell protein lysate was collected for Western Blotting (WB) detection. The experiment consisted of five groups: 0.5% DMSO, 0.875 µM SFN, 1.75 µM SFN, 3.5 µM SFN, and 7 µM SFN. HPAF II cells were treated with different concentrations of the NRF2 activator SFN, and then subjected to Western Blotting to detect the expressions of NRF2 and AKR1C3.

CN(C)C(=O)c1cccc(Oc2cc3c(cc2[N+](=O)[O-])OCCC3OP(=O)(N2CC2)N2CC2)c1 (stereo not shown) [Compound C]
IC50 (NCI-H460 cells; Homo sapiens, Table 25, normoxia, alone or + 3 µM AST-3021): 2.05 nM
Ratio, Compound C/AST-3424 (NCI-H460 cells; Table 25, IC50 ratio): 4.77
IC50 (NCI-H460 P53KO #1 cells; Homo sapiens, NCI-H460 P53KO # 1, normoxia, alone or + 3 µM AST-3021): 36.1 nM
Ratio, knockout / wild-type (NCI-H460 P53KO #1 cells; IC50 in NCI-H460 P53KO # 1 / NCI-H460): 17.60
Ratio, Compound C/AST-3424 (NCI-H460 P53KO #1 cells; NCI-H460 P53KO # 1, IC50 ratio): 6.62

OCc1ccc(-c2ccc(-c3ccc(CO)s3)o2)s1 [RITA]
inhibition at 0.025 µM (H460 cells; Table 13, H460, group 1: AST 0.5 nM, RITA 0.025 µM, AST + RITA 0.5+0.025): 22.3%
inhibition at 0.05 µM (H460 cells; Table 13, H460, group 2: AST 0.5 nM, RITA 0.05 µM, AST + RITA 0.5+0.05): 22.4%
inhibition at 2.5 µM (HPAF-II cells; group 1: AST 60 nM, RITA 2.5 µM, AST + RITA 60+ 2.5): 2.86%
inhibition at 5 µM (HPAF-II cells; group 2: AST 60 nM, RITA 5 µM, AST + RITA 60+ 5): 5.56%

CC(C)C[C@@H](C=O)NC(=O)[C@H](CC(C)C)NC(=O)[C@H](CC(C)C)NC(=O)OCc1ccccc1 [MG-132] (Cbz-Leu-Leu-Leu-aldehyde)
RAD51 protein level after addition of MG-132 [1]: reverses the downregulation of RAD51 protein

Cn1c(COP(=O)(NCCBr)NCCBr)cnc1[N+](=O)[O-] [TH-302]
sensitivity of cell lines and mouse tumor models of BRCA pathogenic mutations [2]: more sensitive

C[S+]([O-])CCCCN=C=S (stereo not shown) [SFN, Sulforaphane]
expression of AKR1C3 [3]: also increases simultaneously
expression of NRF2 [3]: increases significantly

— EP4796125A1, “TREATMENT OF PATIENT WITH NEGATIVE P53 GENE MUTATION, POSITIVE KRAS GENE MUTATION AND POSITIVE BRCA MUTATION” (Ascentawits Pharmaceuticals, Ltd., priority 2023, dated 2025)
